Data as given in patent US11878981B2, “Substituted 1,2,4-oxadiazoles as TRPA1 inhibitors” (Boehringer Ingelheim International GmbH, priority 2021, dated 2024).

How the values were obtained:
[1] = system: human hepatocytes; test: Assay C: Hepatocyte clearance; type: in vitro ADME; details: hepatocyte suspension, 5% species serum, test compound 1 μM, six hours
Description: Assay C: Hepatocyte Clearance
The metabolic degradation of the test compound is assayed in a hepatocyte suspension. Hepatocytes (cryopreserved) are incubated in Dulbecco's modified eagle medium (supplemented with 3.5 μg glucagon/500 mL, 2.5 mg insulin/500 mL and 3.75 mg/500 mL hydrocortison) containing 5% species serum.
The cells are incubated for six hours (incubator, orbital shaker) and samples ([…]) are taken at 0, 0.5, 1, 2, 4 and 6 hours. Samples are transferred into acetonitrile and pelleted by centrifugation (5 min). The supernatant is transferred to a new 96-deepwell plate, evaporated under nitrogen and resuspended.
Decline of Parent Compound is Analyzed by HPLC-MS/MS
CLint is calculated as follows CL_[…]=Dose/AUC=(C0/CD)/(AUD+clast/k)×1000/60. C0: initial concentration in the incubation [μM], CD: cell density of vital cells [10e6 cells/mL], AUD: area under the data [μM×h], clast: concentration of last data point [μM], k: slope of the regression line for parent decline [h−1].
The calculated in vitro hepatic intrinsic clearance can be scaled up to the intrinsic in vivo hepatic Clearance and used to predict hepatic in vivo blood clearance (CL) by the use of a liver model (well stirred model). CL_[…]_INVIVO [ml/min/kg]=(CL_[…] [μL/min/10e6cells]×hepatocellularity [10e6 cells/g liver]×liver factor [g/kg bodyweight])/1000 CL [ml/min/kg]=CL_[…]_INVIVO [ml/min/kg]×hepatic blood flow [ml/min/kg]/(CL_[…]_INVIVO [ml/min/kg]+hepatic blood flow [ml/min/kg]) Qh [%]=CL [ml/min/kg]/hepatic blood flow [ml/min/kg])
(§1) Hepatocellularity, human: 120×10e6 cells/g liver
(§2) Liver factor, human: 25.7 g/kg bodyweight
(§3) Blood flow, human: 21 ml/(min×kg)

[2] = target: T1, human TRPA1 ion channel (Homo sapiens, UniProt O75762); test: Assay A: TRPA1 assay (in vitro TRPA1 cell assay, FLIPR calcium); type: cell-based; details: read-out: hTRPA1 IC50
T1 construct: host or cells: HEK293
Description: A human HEK293 cell line over-expressing the human TRPA1 ion channel (Perkin Elmer, Product No. AX-004-PCL) is used as a test system for compound efficacy and potency. Compound activity is determined by measuring the effect of compounds on intracellular calcium concentration induced by AITC (Allylisothiocyanat) agonism in a FLIPRtetra system (Molecular Devices).
The cells are obtained as frozen cells in cryo-vials and stored until use at −150° C.
Cells are grown in culture medium (MEM/EBSS medium with 10% FCS and 0.4 mg/ML Geneticin). […] For sub-culturing cells are detached from flasks by Versene. At the day before the assay, cells are detached, washed twice with medium (MEM/EBSS medium with 10% FCS) and 20000 cells in 20 μl/well are seeded to Poly D-Lysin biocoated 384-well plates (black, clear bottom, Cat. 356697) from Corning. Plates are incubated for 24 hours at 37° C./5% CO2 before use in the assay.
The test compounds are dissolved in 100% DMSO at a concentration of 10 mM and in a first step diluted in DMSO to a concentration of 5 mM, followed by serial dilution steps in 100% DMSO. Dilution factor and number of dilution steps may vary according to needs. Typically 8 different concentrations by 1:5 dilutions are prepared, further intermediate dilutions (1:20) of the substances are carried out with HBSS/HEPES buffer (1×HEPES, Cat. 14065 from Gibco, 20 mM HEPES, Cat. 83264 from SIGMA, 0.1% BSA Cat. 11926 from Invitrogen, pH 7.4
At the assay day cells are washed 3× with assay puffer, 20 μL buffer remaining in the wells after washing. 10 μL Ca6 kit (Cat. R8191 MolecularDevices) loading buffer in HBSS/HEPES is added to the cells and the plates are incubated with lid for 120 minutes at 37°/5% CO2. 10 μL of compound or controls in HBSS/HEPES buffer/5% DMSO from the intermediate dilution plate are carefully added to the wells. […] Finally 10 μL of the agonist AITC 50 μM dissolved in HBSS/HEPES buffer/0.05% DMSO (final concentration 10 μM) is added to the wells followed by an additional read on the FLIPRtetra device for 10 minutes. The area under the signal curve (AUC) after AITC addition is used for IC50/% inhibition calculations
Data Evaluation and Calculation:
Each assay microtiter plate contains wells with vehicle (1% DMSO) controls instead of compound as controls for AITC induced luminescence (100% CTL; high controls) and wells with vehicle controls without AITC as controls for non-specific changes in luminescence (0% CTL; low controls).
The analysis of the data is performed by the calculation of the area under signal curve of the individual wells. Based on this values the % value for the measurement of each substance concentration is calculated (AUC(sample)−AUC(low))*100/(AUC(high)−AUC(low)) using MegaLab software (in house development). The IC50 values are calculated from the % control values using MegaLab software. Calculation: [y=(a−d)/(1+(x/c)^b)+d], a=low value, d=high value; x=conc M; c=IC50 M; b=hill; y=% ctrl

[3] = Assay B: Microsomal clearance; type: in vitro ADME, human; details: pooled liver microsomes, 37° C., 1 mg/ml protein, test compound 1 μM, NADPH
Description: Assay B: Microsomal Clearance:
The metabolic degradation of the test compound is assayed at 37° C. with pooled liver microsomes. The final incubation volume of 100 μl per time point contains TRIS buffer pH 7.6 at RT (0.1 M), magnesium chloride (5 mM), microsomal protein (1 mg/ml) and the test compound at a final concentration of 1 μM.
Following a short preincubation period at 37° C., the reactions are initiated by addition of beta-nicotinamide adenine dinucleotide phosphate, reduced form (NADPH, 1 mM) and terminated by transferring an aliquot into solvent after different time points (0, 5, 15, 30, 60 min). Additionally, the NADPH-independent degradation is monitored in incubations without NADPH, terminated at the last time point. The [%] remaining test compound after NADPH independent incubation is reflected by the parameter c (control) (metabolic stability). The quenched incubations are pelleted by centrifugation (10000 g, 5 min).
An aliquot of the supernatant is assayed by LC-MS/MS for the amount of parent compound. The half-life (t½ INVITRO) is determined by the slope of the semilogarithmic plot of the concentration-time profile.
The intrinsic clearance (CL_[…]) is calculated by considering the amount of protein in the incubation: CL _[…] [μl/min/mg protein]=(Ln 2/(half-life [min]*protein content [mg/ml]))*1000 CL_[…]_INVIVO [ml/min/kg]=(CL_[…] [μL/min/mg protein]×MPPGL [mg protein/g liver]×liver factor [g/kg bodyweight])/1000 Qh [%]=CL [ml/min/kg]/hepatic blood flow [ml/min/kg])
as §1, §2, §3

T1 sequence (O75762 whole entry): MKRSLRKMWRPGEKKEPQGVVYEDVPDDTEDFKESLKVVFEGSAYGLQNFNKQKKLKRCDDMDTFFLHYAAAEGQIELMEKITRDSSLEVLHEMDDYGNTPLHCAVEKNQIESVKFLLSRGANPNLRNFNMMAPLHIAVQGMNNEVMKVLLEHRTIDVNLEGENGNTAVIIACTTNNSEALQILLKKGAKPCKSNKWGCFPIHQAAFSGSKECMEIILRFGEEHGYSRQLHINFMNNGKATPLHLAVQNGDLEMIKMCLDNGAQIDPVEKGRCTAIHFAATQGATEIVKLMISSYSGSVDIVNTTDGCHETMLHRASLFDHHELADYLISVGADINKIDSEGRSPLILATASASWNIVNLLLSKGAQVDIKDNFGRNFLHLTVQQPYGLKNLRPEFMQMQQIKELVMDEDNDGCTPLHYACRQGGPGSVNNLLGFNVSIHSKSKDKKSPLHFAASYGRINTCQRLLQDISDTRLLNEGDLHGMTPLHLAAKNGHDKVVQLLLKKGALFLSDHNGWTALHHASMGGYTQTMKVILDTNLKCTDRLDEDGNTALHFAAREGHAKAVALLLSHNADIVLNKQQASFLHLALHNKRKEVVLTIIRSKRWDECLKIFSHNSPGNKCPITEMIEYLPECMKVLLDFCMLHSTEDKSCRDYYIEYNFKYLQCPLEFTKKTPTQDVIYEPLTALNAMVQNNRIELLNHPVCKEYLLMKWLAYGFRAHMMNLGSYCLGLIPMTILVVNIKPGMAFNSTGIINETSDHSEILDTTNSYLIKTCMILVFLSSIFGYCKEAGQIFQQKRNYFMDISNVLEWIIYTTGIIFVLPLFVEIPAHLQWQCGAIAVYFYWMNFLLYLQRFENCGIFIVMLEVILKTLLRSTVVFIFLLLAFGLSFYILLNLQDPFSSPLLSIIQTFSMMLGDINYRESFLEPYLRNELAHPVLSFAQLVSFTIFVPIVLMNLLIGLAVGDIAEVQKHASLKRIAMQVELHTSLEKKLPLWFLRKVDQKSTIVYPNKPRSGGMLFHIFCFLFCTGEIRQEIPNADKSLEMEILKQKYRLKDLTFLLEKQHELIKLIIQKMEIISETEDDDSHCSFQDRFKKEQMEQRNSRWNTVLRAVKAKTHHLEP

SMILES: Cn1c(=O)n(C)c2c(=O)n(Cc3nc(C[C@H](O)c4cc5cc(F)ccc5o4)no3)ncc21 [Example 16]
- human Hepatocytes [% Qh] [1]: 14 % Qh
- IC50 [2]: 79 nM
- human LM [% Qh] [3]: <23 % Qh

SMILES: Cn1c(=O)n(C)c2c(=O)n(Cc3nc(C[C@H](O)c4ccc(F)cc4)no3)ncc21 [Example 3]
- human Hepatocytes [% Qh] [1]: 13 % Qh
- IC50 [2]: 147 nM
- human LM [% Qh] [3]: <23 % Qh

SMILES: Cn1c(=O)n(C)c2c(=O)n(Cc3nc(C[C@H](O)c4ccc(Cl)cc4)no3)ncc21 [Example 1, 5-({3-[(2S)-2-(4-chlorophenyl)-2-hydroxyethyl]-1,2,4-oxadiazol-5-yl}methyl)-1,3-dimethyl-1H,2H,3H,4H,5H-imidazo[4,5-d]pyridazine-2,4-dione]
- human Hepatocytes [% Qh] [1]: 10 % Qh
- IC50 [2]: 22 nM
- human LM [% Qh] [3]: <23 % Qh

SMILES: Cn1c(=O)n(C)c2c(=O)n(Cc3nc(C[C@H](O)c4cc5ccc(F)cc5s4)no3)ncc21 [Example 13]
- IC50 [2]: 9 nM
- human LM [% Qh] [3]: 36 % Qh

SMILES: Cn1c(=O)n(C)c2c(=O)n(Cc3nc(C[C@H](O)c4cc5ccccc5s4)no3)ncc21 [Example 14]
- human Hepatocytes [% Qh] [1]: 43 % Qh
- IC50 [2]: 19 nM
- human LM [% Qh] [3]: <23 % Qh

SMILES: Cn1c(=O)n(C)c2c(=O)n(Cc3nc(C[C@H](O)c4cc5cc(Cl)ccc5o4)no3)ncc21 [Example 15]
- human Hepatocytes [% Qh] [1]: 12 % Qh
- IC50 [2]: 47 nM
- human LM [% Qh] [3]: <23 % Qh

SMILES: Cn1cnc2cnn(Cc3nc(C[C@H](O)c4cc5cc(Cl)ccc5o4)no3)c(=O)c21 [Example 11]
- human Hepatocytes [% Qh] [1]: 35 % Qh
- IC50 [2]: 19 nM
- human LM [% Qh] [3]: 30 % Qh

SMILES: Cn1cnc2cnn(Cc3nc(C[C@H](O)c4ccc(Cl)cc4)no3)c(=O)c21 [Example 5]
- human Hepatocytes [% Qh] [1]: 23 % Qh
- IC50 [2]: 60 nM
- human LM [% Qh] [3]: <23 % Qh

SMILES: Cn1c(=O)n(C)c2c(=O)n(Cc3nc(C[C@H](O)c4cc5ccccc5o4)no3)ncc21 [Example 4]
- human Hepatocytes [% Qh] [1]: 9 % Qh
- IC50 [2]: 158 nM
- human LM [% Qh] [3]: <23 % Qh

SMILES: Cn1cnc2cnn(Cc3nc(C[C@H](O)c4ccc(Br)cc4)no3)c(=O)c21 [Example 8, 6-({3-[(2S)-2-(4-bromophenyl)-2-hydroxyethyl]-1,2,4-oxadiazol-5-yl}methyl)-1-methyl-1H,6H,7H-imidazo[4,5-d]pyridazin-7-one]
- human Hepatocytes [% Qh] [1]: 39 % Qh
- IC50 [2]: 41 nM
- human LM [% Qh] [3]: <23 % Qh

SMILES: Cn1cnc2cnn(Cc3nc(C[C@H](O)c4cc5cc(F)ccc5o4)no3)c(=O)c21 [Example 10]
- human Hepatocytes [% Qh] [1]: 29 % Qh
- IC50 [2]: 13 nM
- human LM [% Qh] [3]: <23 % Qh

SMILES: Cn1cnc2cnn(Cc3nc(C[C@H](O)c4cc5ccccc5s4)no3)c(=O)c21 [Example 12]
- human Hepatocytes [% Qh] [1]: 42 % Qh
- IC50 [2]: 24 nM
- human LM [% Qh] [3]: 31 % Qh

SMILES: Cc1ccc([C@@H](O)Cc2noc(Cn3ncc4c(c3=O)n(C)c(=O)n4C)n2)cc1 [Example 2]
- human Hepatocytes [% Qh] [1]: 14 % Qh
- IC50 [2]: 47 nM
- human LM [% Qh] [3]: <23 % Qh

SMILES: Cc1ccc([C@@H](O)Cc2noc(Cn3ncc4ncn(C)c4c3=O)n2)cc1 [Example 6]
- human Hepatocytes [% Qh] [1]: 9 % Qh
- IC50 [2]: 96 nM
- human LM [% Qh] [3]: <23 % Qh

SMILES: Cn1cnc2cnn(Cc3nc(C[C@H](O)c4cc5ccc(F)cc5s4)no3)c(=O)c21 [Example 9]
- human Hepatocytes [% Qh] [1]: 43 % Qh
- IC50 [2]: 9 nM
- human LM [% Qh] [3]: 41 % Qh

SMILES: Cn1cnc2cnn(Cc3nc(C[C@H](O)c4ccc5c(c4)OCO5)no3)c(=O)c21 [Example 7]
- human Hepatocytes [% Qh] [1]: 9 % Qh
- IC50 [2]: 204 nM
- human LM [% Qh] [3]: <23 % Qh
